Measured values taken from PMC8162347, “Bolaamphiphilic Bis-Dehydropeptide Hydrogels as Potential Drug Release Systems” (Gels, 2021).

Columns and labels:
[1] = Cbz-capped dehydrodipeptides; cited from earlier work
Description: Our research group, and others, have reported new dehydropeptides capable of forming hydrogels. The presence of a dehydroamino acid residue imparts increased proteolytic resistance into the hydrogels, as well as different physical properties arising from the decreased structural flexibility of the dehydropeptide chain [13, 14, 15, 16]. In our laboratories, several dehydrodipeptides capped on the N-terminus with naproxen (e.g., Npx-L-Phe-Z-ΔPhe-OH and Npx-L-Trp-Z-ΔPhe-OH) were prepared and tested as hydrogelators, providing hydrogels with critical gelation concentrations (CGCs) of between ... || Figure 1 (A) Our previously studied naproxen- and carboxybenzyl-capped dehydropeptide hydrogelators. (B) Examples of bolaamphiphilic hydrogelators in the literature. (C) Summary of hydrogel properties. (D) Combining the structures of N-capped dehydrohydropeptide gelators and bolaamphiphilic gelators into a single molecule. TEXT PRINTED IN THE PICTURE: (C) a: cgc (wt%): 0.4 (pH: 8.0) | (C) b: cgc (wt%): 0.4 (pH: 6.0) | (C) c: cgc (wt%): 0.1 (pH: 5.0) | (C) d: cgc (wt%): 0.2 (pH: 5.0) | (C) e: cgc (wt%): 2.5 (pH: 2.0) | (C) f: cgc (wt%): 5.0 (pH: 3.3)

[2] = Oscillatory rheology of hydrogels; assay type: physicochemical; conditions: for k (growth rate constant) / kn (nucleation rate constant): fit of Equation (1) to gelation kinetics; for dG: fit of Equation (1), increment in storage modulus during the kinetics; for Initial time lag before the significant rise in G′: gelation kinetics, 0.001% strain; for Initial time lag before the significant rise in G′ / G′ / G″: 25 °C; for Initial time lag before the significant rise in G′ / Thermal stability of gel (variation of G′): 1 Hz; for Thermal stability of gel (variation of G′): heating–cooling cycle between 25 and 40 °C, 1 °C/min, strain 0.005%; for G′ / G″: hydrogel at structural equilibrium, frequency sweep 100 to 0.1 Hz, strain 0.01%
Text: This is due to the rather small deformation used during this test to allow gel formation without disturbing the build-up of the network structure. In contrast to this, see the data for compounds 1 and 2. A two-step model is often used to describe the nucleation (with rate constant kn) and growth (with rate constant k) of aggregates of peptides:(1) f(t) = G0 + dGρ(e^(1+ρ)kt − 1)/1 + ρe^(1+ρ)kt where ρ = kn/k , G0 is the initial storage modulus of the aggregate-free solution, and dG is the increment in the storage modulus during the kinetics.
After reaching the structural equilibrium established by the reading of constant shear moduli G′ and G″ with time, a frequency-sweep from 100 down to 0.1 Hz was performed with a strain of 0.01% (Figure S6 in Supplementary Information). For hydrogels obtained from compounds 1, 2, and 3, G′ is essentially constant over the frequency domain tested, and it is 10 times larger than G″. Overall, all mechanical spectra are qualitatively similar and reminiscent of the rheological signature of gels, as G′ is higher than G″ for hydrogels of compounds 1–3 (Table 3). ′
After the thermal cycle, gels were submitted to a strain sweep, where the frequency was maintained at 1 Hz. The hydrogels of compounds 2 and 1 break up more easily than hydrogel of compound 3 (Figure 7). […] In summary, and connecting the rheological data to the structural information inferred from both STEM and CD, coil conformers of compound 2 rapidly self-assemble to build a rubber-like (entropic) network, which brings most of the gel elasticity. This is in contrast to the elastically weaker gels of compound 3, which are predominantly made from the networking of fibrils likely formed from beta conformers. Gels of compound 1 show intermediate elasticity, originating from the slower networking of a mixture of coil and beta sheet conformers.
The viscoelastic characterization of hydrogels was performed with a stress-controlled rotational rheometer Anton Paar MCR300 (Anton Paar GmbH, Graz, Austria). Gel-forming solutions were loaded in the shearing geometry (a Couette cell with 1 mL volume and 0.5 mm gap) at 25 °C. The liquid sample was pre-sheared at a shear rate of 5 s^−1 during one minute to homogenize the sample in the shearing geometry. Then, the gelation kinetics was monitored during 10 h by applying a small amplitude (0.001%) oscillatory shear at 1 Hz and recording both storage (G′) and loss (G″) moduli at each second. Then, mechanical spectra were recorded, and gels were submitted to a heating–cooling cycle between 25 and 40 °C at a rate of +/−1 °C/min. Finally, gels were submitted to a strain sweep.

[3] = tested on: HaCaT cell line (human keratinocytes); experiment: MTT assay, cell viability; assay type: cell-based; conditions: 24 h; for Apparent loss of cell viability (mitochondrial activity): most concentrations tested, independent of concentration
Description: Human keratinocytes cell line HaCaT was from ATCC. Cells were cultured in DMEM supplemented with 10% FBS and 1% penicillin/streptomycin and were incubated at 37 °C, in a humidified atmosphere of 5% CO2.
Cells were seeded in 96-well plates (1.5 × 10^4 cells/well) and left to attach for 24 h. After this period, cells were incubated with different concentrations of the molecules under study for another 24 h. Then, cell viability was evaluated based on the ability of metabolically active cells to convert MTT to formazan over the course of 2 h. Absorbances were measured at 570 nm in a Multiskan GO plate reader (Thermo Fisher Scientific; Waltham, MA, USA) and results were expressed as percentage of the respective control and correspond to the mean ± standard error of the mean (SEM) of at least three independent experiments performed in triplicate. On the other hand, to assess the release of the stable cytosolic enzyme lactate dehydrogenase (LDH) into the media, 24 h after the incubation of the cells with the different concentrations of the molecules under study, 40 µL of culture media were removed to a 96-well plate. LDH released was determined using a CytoTox 96® assay kit (Promega; Madison, WI, USA) according to the manufacturer’s instructions. Then, 1% Triton X-100 was used as positive control to assure cell lysis (30 min). Absorbances were measured at 490 nm in a Multiskan GO plate reader (Thermo Fisher Scientific; Waltham, MA, USA), and results correspond to the fold-increase of absorbance in treated vs. untreated cells of three independent experiments performed in duplicate. Following assessment of the distribution of the results, ANOVA was performed using GraphPad Prism 8.0 (GraphPad Prism Inc., San Diego, CA, USA).

[4] = Gelation study, pH trigger with GdL, vial inversion test; assay type: physicochemical; conditions: for pH (gelation conditions): pH of hydrogel at cgc after GDL 0.4 wt %; for Critical Gelation Concentration (cgc): vial inversion test, water, NaOH (1 M) to circa pH 10, then GDL 0.4 wt %
Text: Nonetheless, dimeric dehydropeptides 1–4 could be dissolved in water upon pH adjustment to pH 10–11, which was achieved by addition of NaOH solution (1 M). Gel formation was triggered by a slow pH drop. The pH change was obtained by the aqueous hydrolysis of added D-glucono-δ-lactone (GdL) to D-gluconic acid. […] The CGCs of hydrogels 1–3 were qualitatively assessed by varying the peptide concentrations and conducting vial inversion tests.
Dehydrodipeptides 1, 2 and 3 were weighed into sample vials, water was added, and the suspension was adjusted under magnetic stirring to circa pH 10 (pH meter) by the addition of NaOH (1 M), and D-glucono-δ-lactone (GDL) was added. The solutions were left standing overnight at room temperature (20–25 °C).

[5] = Sustained release assay of model cargo from hydrogels
Description: Hydrogels containing cationic, anionic, or zwitterionic model drugs were prepared using the same conditions described in Section 2.2 but with the water component (1 mL) being replaced by a methylene blue solution, methyl orange solution, or ciprofloxacin solution. In a modified version of the method described by Abraham et al., water was carefully layered on top of the hydrogel surface. Then, the percentage release of model drug was recorded versus time, over 6 days, through UV absorption measurements or by HPLC and then subsequently fitted to a standard calibration curve (Figure S10 in Supplementary Information). The experiments were also assessed visually (Figure 9). […] In the studies involving the release of methyl orange, a clearly visible release of the anionic dye into the layered water solution was observed from the three hydrogels after several days (Figure 9B,D,F centre). The results for the release of methyl orange were also confirmed quantitatively by UV absorption measurements. Hydrogelators 1 and 3, which contain a phenylalanine residue, release nearly 60% of the anionic methyl orange cargo, whereas hydrogel 2, containing a tyrosine residue, released more than 90%. […] Ciprofloxacin was included as an overall neutral cargo. In experiments involving hydrogels of compounds 1–3 containing ciprofloxacin, the amount of ciprofloxacin present in the above water layer was determined by HPLC at various time-points. Hydrogelators 1, 2, and 3 release 32%, 58%, and 20% of their ciprofloxacin cargo, respectively (Table 4) (Figure S11 in Supplementary Information). As observed for methyl orange, the hydrogel that releases the greatest amount of ciprofloxacin is the hydrogel obtained from compound 2 (Table 4, Figure S11 in Supplementary Information).
To quantitatively evaluate the drug release from hydrogels 1–3, several mathematical models were tested to see which one fits the tested hydrogels. The Korsmeyer–Peppas model is the preferred model for polymeric systems. Korsmeyer described a simple relationship that described drug release from a polymeric system that includes both the diffusion and erosion of the polymer chain. The following equation describes the Korsmeyer–Peppas model: Mt/M = Kt^n
Hydrogels of 1, 2, and 3 were prepared as described in Section 4.2 to form 1 mL hydrogels containing the same concentration of the hydrogelators described above and the appropriate cargo (methylene blue ([…]), methyl orange (0.2 nM), or ciprofloxacin (0.2 nM)), in a slightly modified version of the procedure described by Abraham et al.. After allowing to stand overnight, 1.5 mL of water was carefully added to the surface of the hydrogels. Aliquots of the layered solution (100 μL) were removed at 1 h, 2 h, 3 h, 4 h, 6 h, 24 h, 72 h, and 6 days from the time the water was initially layered on top of the hydrogel. After removing each aliquot, the volume water was immediately replaced by an equal volume of water. The concentration of methylene blue or methyl orange in each aliquot was determined by measuring the absorbance at λmax of the dye (666 nm for methylene blue and 465 nm for methyl orange) using a microplate reader and then converting the value to percentage release (using a standard calibration curve). The concentration of ciprofloxacin in each aliquot was determined using analytical HPLC, where the integrated peak area was converted to a percentage release (using a standard calibration curve). Each experiment was performed in triplicate, and the mean percentage cargo release was plotted against time.

[6] = standing overnight at room temperature (20–25 °C)

Molecule: Cbz-L-Phe-Z-ΔPhe-OH
- CGC [1]: 0.1%

Molecule: O=C(O)/C(=C/c1ccccc1)NC(=O)[C@H](Cc1ccccc1)NC(=O)c1ccc(C(=O)N[C@@H](Cc2ccccc2)C(=O)N/C(=C\c2ccccc2)C(=O)O)cc1 [Compound 1]
- k (growth rate constant) [2]: 0.18 ± 0.10 h⁻¹
- kn (nucleation rate constant) [2]: 0.40 ± 0.04 h⁻¹
- dG [2]: 2392 ± 66 Pa
- Initial time lag before the significant rise in G′ [2]: 2300 s
- Thermal stability of gel (variation of G′) [2]: not thermally sensitive
- G′ [2]: 2.5 × 10^3 Pa
- G″ [2]: 6.5 × 10^1 Pa
- Apparent loss of cell viability (mitochondrial activity) [3]: around 20%
- pH (gelation conditions) [4]: 5.10
- Critical Gelation Concentration (cgc) ([4]; overnight at room temperature): 4.0 mM
- Critical Gelation Concentration (cgc) [4, 6]: 0.3 wt %
- K, release rate constant, Korsmeyer–Peppas model ([5]; ciprofloxacin release profile): 0.0200
- n, release exponent, Korsmeyer–Peppas model ([5]; ciprofloxacin release profile): 0.3300
- K, release rate constant, Korsmeyer–Peppas model ([5]; methyl orange release profile): 0.0200
- n, release exponent, Korsmeyer–Peppas model ([5]; methyl orange release profile): 0.4000

Molecule: Cbz-L-Tyr-Z-ΔPhe-OH
- CGC [1]: 0.1%

Molecule: O=C(O)/C(=C/c1ccccc1)NC(=O)[C@H](Cc1ccc(O)cc1)NC(=O)c1ccc(C(=O)N[C@@H](Cc2ccc(O)cc2)C(=O)N/C(=C\c2ccccc2)C(=O)O)cc1 [Compound 2]
- G0 ([2]; fit of Equation (1) (Saitô) to gelation kinetics, initial storage modulus): 0 ± 25 Pa
- k (growth rate constant) [2]: 1.84 ± 0.04 h⁻¹
- kn (nucleation rate constant) [2]: 0.02 ± 0.001 h⁻¹
- dG [2]: 5722 ± 39 Pa
- Initial time lag before the significant rise in G′ [2]: 4600 s
- Thermal stability of gel (variation of G′) [2]: shows a thermal hysteresis
- G′ [2]: 4.5 × 10^3 Pa
- G″ [2]: 1.4 × 10^2 Pa
- Effect on HaCaT viability [3]: mostly devoid of any effect
- Loss of mitochondrial activity ([3]; the two highest concentrations): around 10%
- pH (gelation conditions) [4]: 4.15
- Critical Gelation Concentration (cgc) ([4]; overnight at room temperature): 5.1 mM
- Critical Gelation Concentration (cgc) [4, 6]: 0.4 wt %
- K, release rate constant, Korsmeyer–Peppas model ([5]; ciprofloxacin release profile): 0.0030
- n, release exponent, Korsmeyer–Peppas model ([5]; ciprofloxacin release profile): 0.5800
- K, release rate constant, Korsmeyer–Peppas model ([5]; methyl orange release profile): 0.0900
- n, release exponent, Korsmeyer–Peppas model ([5]; methyl orange release profile): 0.2700

Molecule: O=C(O)/C(=C/c1ccccc1)NC(=O)[C@H](Cc1ccc(O)cc1)NC(=O)c1ccc2cc(C(=O)N[C@@H](Cc3ccc(O)cc3)C(=O)N/C(=C\c3ccccc3)C(=O)O)ccc2c1 [Compound 4]
- Apparent loss of cell viability (mitochondrial activity) [3]: around 20%
- Hydrogel formation ([4]; slow pH drop by GdL hydrolysis from pH 10–11, for 4 several triggers (pH, temperature, solvent exchange), 0.3–0.8 wt %): failed to give hydrogels
- Critical Gelation Concentration (cgc) ([4]; overnight at room temperature): No hydrogel
- Critical Gelation Concentration (cgc) [4, 6]: No hydrogel

Molecule: O=C(O)/C(=C/c1ccccc1)NC(=O)[C@H](Cc1ccccc1)NC(=O)c1ccc2cc(C(=O)N[C@@H](Cc3ccccc3)C(=O)N/C(=C\c3ccccc3)C(=O)O)ccc2c1 [Compound 3]
- G′ [2]: 3.7 × 10^2 Pa
- G″ [2]: 1.3 × 10^1 Pa
- Apparent loss of cell viability (mitochondrial activity) [3]: around 20%
- pH (gelation conditions) [4]: 5.30
- Critical Gelation Concentration (cgc) ([4]; overnight at room temperature): 3.7 mM
- Critical Gelation Concentration (cgc) [4, 6]: 0.3 wt %
- K, release rate constant, Korsmeyer–Peppas model ([5]; ciprofloxacin release profile): 0.0001
- n, release exponent, Korsmeyer–Peppas model ([5]; ciprofloxacin release profile): 0.6300
- K, release rate constant, Korsmeyer–Peppas model ([5]; methyl orange release profile): 0.0400
- n, release exponent, Korsmeyer–Peppas model ([5]; methyl orange release profile): 0.3300
